Measured values as given in ChEMBL document CHEMBL1146014, “Design and synthesis of selective alpha1B adrenoceptor antagonists” (Bioorg Med Chem Lett, 2006).

Experiments:
[1] = target: T1, Alpha-1A adrenergic receptor (Rattus norvegicus, UniProt P43140); experiment: Displacement of [3H]prazosin from adrenergic alpha-1A receptor in rat submaxillary gland membranes; assay type: cell membranes, Membrane
T1 sequence (P43140 whole entry): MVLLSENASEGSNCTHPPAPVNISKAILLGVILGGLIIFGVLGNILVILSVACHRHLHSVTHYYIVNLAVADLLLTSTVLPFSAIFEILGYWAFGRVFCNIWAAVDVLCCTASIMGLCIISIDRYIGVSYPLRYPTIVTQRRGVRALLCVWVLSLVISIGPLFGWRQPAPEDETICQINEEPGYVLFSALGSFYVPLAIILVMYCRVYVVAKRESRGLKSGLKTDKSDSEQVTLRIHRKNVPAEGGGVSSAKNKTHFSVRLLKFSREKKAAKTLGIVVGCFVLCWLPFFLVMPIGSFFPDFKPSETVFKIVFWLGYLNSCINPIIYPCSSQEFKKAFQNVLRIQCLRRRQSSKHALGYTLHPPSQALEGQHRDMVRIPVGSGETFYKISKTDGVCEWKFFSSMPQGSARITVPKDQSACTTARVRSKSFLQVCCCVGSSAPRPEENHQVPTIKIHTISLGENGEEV

[2] = target: T2, Alpha-1B adrenergic receptor (Rattus norvegicus, UniProt P15823); experiment: Displacement of [3H]prazosin from adrenergic alpha-1B receptor in rat liver membranes; assay type: cell membranes, Membrane
T2 sequence (P15823 whole entry): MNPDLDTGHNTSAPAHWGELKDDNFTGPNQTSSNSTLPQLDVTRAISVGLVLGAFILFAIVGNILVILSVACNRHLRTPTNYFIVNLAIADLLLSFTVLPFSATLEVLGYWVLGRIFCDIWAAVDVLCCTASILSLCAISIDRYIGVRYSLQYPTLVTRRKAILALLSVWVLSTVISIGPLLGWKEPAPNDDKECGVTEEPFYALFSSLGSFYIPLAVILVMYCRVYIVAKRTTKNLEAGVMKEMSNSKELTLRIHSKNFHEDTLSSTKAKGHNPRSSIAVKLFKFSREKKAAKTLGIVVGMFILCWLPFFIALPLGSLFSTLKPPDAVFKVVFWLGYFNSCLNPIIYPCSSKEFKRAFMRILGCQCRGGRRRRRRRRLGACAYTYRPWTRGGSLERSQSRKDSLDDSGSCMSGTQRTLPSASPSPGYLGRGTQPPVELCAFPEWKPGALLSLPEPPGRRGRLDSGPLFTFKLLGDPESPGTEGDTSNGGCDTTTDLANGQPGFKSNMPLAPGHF

[3] = target: T3, Alpha-1D adrenergic receptor (Homo sapiens, UniProt P25100); experiment: Binding affinity to human adrenergic Alpha-1D receptor
T3 sequence (P25100 whole entry): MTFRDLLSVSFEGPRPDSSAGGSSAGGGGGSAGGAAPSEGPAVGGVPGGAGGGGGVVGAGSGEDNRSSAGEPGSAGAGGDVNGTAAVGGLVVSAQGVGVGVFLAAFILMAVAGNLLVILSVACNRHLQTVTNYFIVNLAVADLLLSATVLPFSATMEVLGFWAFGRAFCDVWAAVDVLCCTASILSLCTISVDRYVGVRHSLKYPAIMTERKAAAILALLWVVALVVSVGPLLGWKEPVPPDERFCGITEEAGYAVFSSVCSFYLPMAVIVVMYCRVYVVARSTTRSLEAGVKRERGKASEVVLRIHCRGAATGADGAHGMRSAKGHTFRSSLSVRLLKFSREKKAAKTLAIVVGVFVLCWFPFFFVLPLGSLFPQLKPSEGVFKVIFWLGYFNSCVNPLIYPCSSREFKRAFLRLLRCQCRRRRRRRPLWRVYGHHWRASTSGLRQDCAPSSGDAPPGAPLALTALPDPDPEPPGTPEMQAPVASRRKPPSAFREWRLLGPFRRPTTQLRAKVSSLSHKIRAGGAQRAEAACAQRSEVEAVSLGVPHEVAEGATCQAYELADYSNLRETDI

[4] = target: T4, Adrenergic receptor alpha-2 (Rattus norvegicus, UniProt P22086+P19328+P22909); experiment: Binding affinity to rat adrenergic alpha2 receptor; assay type: protein assay
T4 sequence (P22086 whole entry): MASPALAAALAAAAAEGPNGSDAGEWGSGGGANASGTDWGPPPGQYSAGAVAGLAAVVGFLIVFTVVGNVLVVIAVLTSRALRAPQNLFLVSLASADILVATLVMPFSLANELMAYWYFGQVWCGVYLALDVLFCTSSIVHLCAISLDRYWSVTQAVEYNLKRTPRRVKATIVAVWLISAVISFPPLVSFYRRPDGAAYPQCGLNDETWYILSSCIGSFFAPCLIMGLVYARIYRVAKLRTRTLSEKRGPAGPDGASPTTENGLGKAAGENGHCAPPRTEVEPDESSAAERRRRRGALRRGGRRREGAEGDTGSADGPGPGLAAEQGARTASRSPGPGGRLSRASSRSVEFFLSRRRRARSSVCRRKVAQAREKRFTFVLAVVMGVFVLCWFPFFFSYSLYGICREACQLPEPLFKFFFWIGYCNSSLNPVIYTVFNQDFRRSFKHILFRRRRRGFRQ
T4 sequence (P19328 whole entry): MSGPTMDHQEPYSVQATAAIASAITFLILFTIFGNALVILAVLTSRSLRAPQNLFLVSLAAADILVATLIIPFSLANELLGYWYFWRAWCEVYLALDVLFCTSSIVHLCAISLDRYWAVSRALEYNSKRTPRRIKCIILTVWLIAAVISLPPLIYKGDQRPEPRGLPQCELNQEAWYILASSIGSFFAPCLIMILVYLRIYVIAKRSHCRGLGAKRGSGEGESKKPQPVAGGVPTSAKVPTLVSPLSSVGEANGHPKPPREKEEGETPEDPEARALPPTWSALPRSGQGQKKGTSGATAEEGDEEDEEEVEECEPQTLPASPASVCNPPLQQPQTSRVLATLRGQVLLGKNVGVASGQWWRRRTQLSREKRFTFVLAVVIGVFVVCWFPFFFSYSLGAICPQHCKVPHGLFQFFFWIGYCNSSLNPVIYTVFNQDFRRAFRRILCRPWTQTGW
T4 sequence (P22909 whole entry): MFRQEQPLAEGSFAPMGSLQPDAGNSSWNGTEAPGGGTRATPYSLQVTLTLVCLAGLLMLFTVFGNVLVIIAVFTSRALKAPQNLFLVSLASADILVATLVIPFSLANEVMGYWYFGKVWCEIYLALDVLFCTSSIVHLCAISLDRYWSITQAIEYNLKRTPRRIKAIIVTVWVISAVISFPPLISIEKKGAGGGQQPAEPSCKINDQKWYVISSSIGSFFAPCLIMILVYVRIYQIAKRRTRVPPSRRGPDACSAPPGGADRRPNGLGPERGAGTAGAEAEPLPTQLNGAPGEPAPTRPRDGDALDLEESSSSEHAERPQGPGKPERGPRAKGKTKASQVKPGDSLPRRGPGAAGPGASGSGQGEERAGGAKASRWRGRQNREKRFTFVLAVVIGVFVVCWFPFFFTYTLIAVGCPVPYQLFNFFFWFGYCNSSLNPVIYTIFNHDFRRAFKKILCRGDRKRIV

Adrenergic receptor beta = Adrenergic receptor beta (Rattus norvegicus, UniProt P18090+P10608+P26255); experiment: Binding affinity to rat adrenergic beta receptor; assay type: protein assay

| Structure (SMILES) | Ki [1] | Ki [2] | Ki [3] | Ki [4] | Ki (Adrenergic receptor beta) |
| --- | --- | --- | --- | --- | --- |
| Cn1cc(C2CCN(CCCN3CCCCC3)CC2)c2ccccc21 | 480 nM | 60 nM | – | – | – |
| Cc1[nH]c2ccccc2c1C1CCN(CCCN2CCCCC2)CC1 | 1900 nM | 71 nM | – | – | – |
| Cl.Cl.Fc1ccc2c(C3CCN(CCCN4CCCCC4)CC3)c[nH]c2c1 | – | – | 22 nM | 140 nM | > 1000 nM |
| Cl.Cl.c1ccc2c(C3CCN(CCCCCN4CCCCC4)CC3)c[nH]c2c1 | – | – | 37 nM | 355 nM | > 1000 nM |
| Oc1nc2ccccc2n1C1CCN(CCCN2CCCCC2)CC1 | 900 nM | 70 nM | – | – | – |
| c1ccc(CC2CCN(CCCN3CCCCC3)CC2)cc1 | – | 1120 nM | – | – | – |
| Fc1ccc2[nH]cc(C3CCN(CCCN4CCCCC4)CC3)c2c1 | 690 nM | 16 nM | – | – | – |

The remaining compounds from weak to strong by Ki [2], led by results:

| Ki [1] | Ki [2] | Ki [3] | Ki [4] | Ki (Adrenergic receptor beta) | Structure (SMILES) |
| --- | --- | --- | --- | --- | --- |
| 57 nM | 14 nM | – | – | – | c1ccc2c(C3CCN(CCCN4CCCCC4)CC3)noc2c1 |
| 60 nM | 7.7 nM | – | – | – | c1ccc2c(C3CCN(CCCN4CCCCC4)CC3)coc2c1 |
| 120 nM | 3 nM | 69 nM | 370 nM | > 1000 nM | Cl.Cl.c1ccc2c(C3CCN(CCCN4CCCCC4)CC3)c[nH]c2c1 |
| 56 nM | 1.1 nM | – | – | – | c1ccc2c(C3CCN(CCCCN4CCCCC4)CC3)c[nH]c2c1 |
